pEC50: −log10 of the molar value. Where a name gives a salt, the structure may show the parent alone.
Target: human activated kallikrein enzyme (Homo sapiens, UniProt P03952)
Experiment: Inhibition of human activated plasma kallikrein, fluorogenic PFR-AMC substrate, 500 pM enzyme format
Assay type: biochemical
Conditions: 500 pM activated kallikrein; 300 μM PFR-AMC; 30 min preincubation; 10 min room temperature; pH 7.5; read-out: Primary Dose Response Assay: Average EC50
In short: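 500 pM activated kallikrein preincubated 30 min at room temperature with inhibitors in pH 7.5 Tris/EDTA/NaCl buffer with PEG-400 and Triton X-100. Reaction started with 300 μM PFR-AMC, run 10 min at room temperature; AMC fluorescence read at ex 380/em 460 nm.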

human activated kallikrein enzyme, sequence (P03952 391-638 limits assumed): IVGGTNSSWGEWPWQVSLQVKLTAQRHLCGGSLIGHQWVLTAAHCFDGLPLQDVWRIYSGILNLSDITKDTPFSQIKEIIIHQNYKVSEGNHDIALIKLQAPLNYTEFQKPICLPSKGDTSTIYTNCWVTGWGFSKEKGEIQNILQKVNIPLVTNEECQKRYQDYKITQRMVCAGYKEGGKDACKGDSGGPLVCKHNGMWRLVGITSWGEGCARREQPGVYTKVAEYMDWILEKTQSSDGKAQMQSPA
human activated kallikrein enzyme, sequence (P03952 20-390 partner limits assumed): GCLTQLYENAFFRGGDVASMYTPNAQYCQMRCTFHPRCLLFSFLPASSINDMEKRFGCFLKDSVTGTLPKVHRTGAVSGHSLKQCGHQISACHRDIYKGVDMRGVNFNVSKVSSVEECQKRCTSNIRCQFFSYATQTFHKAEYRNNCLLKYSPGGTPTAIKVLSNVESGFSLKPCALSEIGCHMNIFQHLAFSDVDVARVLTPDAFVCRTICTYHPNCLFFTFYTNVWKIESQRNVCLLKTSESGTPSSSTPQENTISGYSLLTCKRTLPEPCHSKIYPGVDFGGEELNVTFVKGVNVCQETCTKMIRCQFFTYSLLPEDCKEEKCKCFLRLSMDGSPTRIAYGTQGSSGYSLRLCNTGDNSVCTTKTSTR

pEC50 | SMILES
> 9.00 | Cc1cc2c(N)nccc2c(C)c1CNc1cc(OCc2cn3cc(C4CC4)ccc3n2)nc(CCC(=O)O)n1 [Example 293, 3-(4-(((1-amino-5,7-dimethylisoquinolin-6-yl)methyl)amino)-6-((6-cyclopropylimidazo[1,2-a]pyridin-2-yl)methoxy)pyrimidin-2-yl)propanoic acid]
> 9.00 | Cc1cc2c(N)nccc2c(C)c1CNc1cc(OCc2cn3cc(C4CC4)cnc3n2)nc(CCC(=O)O)n1 [Example 294, 3-(4-(((1-amino-5,7-dimethylisoquinolin-6-yl)methyl)amino)-6-((6-cyclopropylimidazo[1,2-a]pyrimidin-2-yl)methoxy)pyrimidin-2-yl)propanoic acid]
8.00 to 9.00 | Cc1cc2c(N)nccc2c(C)c1CNc1cc(OCc2nc3ccc(C4CC4)cn3n2)nc(CCC(=O)O)n1 [Example 295, 3-(4-(((1-amino-5,7-dimethylisoquinolin-6-yl)methyl)amino)-6-((6-cyclopropyl-[1,2,4]triazolo[1,5-a]pyridin-2-yl)methoxy)pyrimidin-2-yl)propanoic acid]
7.00 to 8.00 | Cc1cc2c(N)nccc2c(C)c1CNc1cc(OCc2ccc(-n3ccccc3=O)cc2)ncn1 [Example 296, 1-(4-(((6-(((1-amino-5,7-dimethylisoquinolin-6-yl)methyl)amino)pyrimidin-4-yl)oxy)methyl)phenyl)pyridin-2(1H)-one]
8.00 to 9.00 | Cc1cc2c(N)nccc2c(C)c1CNc1cc(OCc2ccc(Cc3ccn(C)n3)cc2)ncn1 [Example 297, 5,7-dimethyl-6-(((6-((4-((1-methyl-1H-pyrazol-3-yl)methyl)benzyl)oxy)pyrimidin-4-yl)amino)methyl)isoquinolin-1-amine, formic acid salt]
7.00 to 8.00 | Cc1cc2c(N)nccc2c(C)c1CNc1cc(OCc2cnc(N3CCCC3)nc2)ncn1 [Example 298, 5,7-dimethyl-6-(((6-((2-(pyrrolidin-1-yl)pyrimidin-5-yl)methoxy)pyrimidin-4-yl)amino)methyl)isoquinolin-1-amine]
8.00 to 9.00 | Cc1cc2c(N)nccc2c(C)c1CNc1cc(OCc2ccc(Cc3cccn(C)c3=O)cc2)ncn1 [Example 299, 3-(4-(((6-(((1-amino-5,7-dimethylisoquinolin-6-yl)methyl)amino)pyrimidin-4-yl)oxy)methyl)benzyl)-1-methylpyridin-2(1H)-one]
6.00 to 7.00 | Cc1cc2c(N)nccc2c(C)c1CNc1cc(OCc2ccc(Cn3cccn3)nc2)ncn1 [Example 300, 6-(((6-((6-((1H-pyrazol-1-yl)methyl)pyridin-3-yl)methoxy)pyrimidin-4-yl)amino)methyl)-5,7-dimethylisoquinolin-1-amine]
> 9.00 | Cc1cc2c(N)nccc2c(C)c1CNc1cc(OCc2ccc(Cn3ccccc3=O)cc2)ncn1 [Example 301, 1-(4-(((6-(((1-amino-5,7-dimethylisoquinolin-6-yl)methyl)amino)pyrimidin-4-yl)oxy)methyl)benzyl)pyridin-2(1H)-one]
8.00 to 9.00 | Cc1cc2c(N)nccc2c(C)c1CNc1cc(OCc2ccc(CN3CCOCC3=O)cc2)ncn1 [Example 302, 4-(4-(((6-(((1-amino-5,7-dimethylisoquinolin-6-yl)methyl)amino)pyrimidin-4-yl)oxy)methyl)benzyl)morpholin-3-one, trifluoroacetic acid salt]
8.00 to 9.00 | Cc1cc2c(N)nccc2c(C)c1CNc1cc(OCc2ccc(Cn3cccc(C4CC4)c3=O)cc2)ncn1 [Example 303, 1-(4-(((6-(((1-amino-5,7-dimethylisoquinolin-6-yl)methyl)amino)pyrimidin-4-yl)oxy)methyl)benzyl)-3-cyclopropylpyridin-2(1H)-one, formic acid salt]
> 9.00 | Cc1cc2c(N)nccc2c(C)c1CNc1cc(OCc2cn3c(C)c(Cl)ccc3n2)ncn1 [Example 304, 6-(((6-((6-chloro-5-methylimidazo[1,2-a]pyridin-2-yl)methoxy)pyrimidin-4-yl)amino)methyl)-5,7-dimethylisoquinolin-1-amine]
7.00 to 8.00 | Cc1cc2c(N)nccc2c(C)c1CNc1cc(NCc2ccc3ccccc3n2)ncn1 [Example 306, N^4-((1-amino-5,7-dimethylisoquinolin-6-yl)methyl)-N^6-(quinolin-2-ylmethyl)pyrimidine-4,6-diamine]
7.00 to 8.00 | COc1ccc2nc(CNc3cc(NCc4c(C)cc5c(N)nccc5c4C)ncn3)ccc2c1 [Example 307, N^4-((1-amino-5,7-dimethylisoquinolin-6-yl)methyl)-N^6-((6-methoxyquinolin-2-yl)methyl)pyrimidine-4,6-diamine]
7.00 to 8.00 | Cc1cc2c(N)nccc2c(C)c1CNc1cc(N(C)Cc2ccc3ncccc3c2)ncn1 [Example 308, N^4-((1-amino-5,7-dimethylisoquinolin-6-yl)methyl)-N^6-methyl-N^6-(quinolin-6-ylmethyl)pyrimidine-4,6-diamine]
> 9.00 | Cc1cc2c(N)nccc2c(C)c1CNc1cc(NCc2ccc3ncc(Cl)cc3c2)ncn1 [Example 309, N^4-((1-amino-5,7-dimethylisoquinolin-6-yl)methyl)-N^6-((3-chloroquinolin-6-yl)methyl)pyrimidine-4,6-diamine]

pEC50 | SMILES
> 9.00 | Cc1cc2c(N)nccc2c(C)c1CNc1cc(NC(C)c2ccc3ncc(Cl)cc3c2)ncn1 (centres unmarked) [Example 310, N^4-((1-amino-5,7-dimethylisoquinolin-6-yl)methyl)-N^6-(1-(3-chloroquinolin-6-yl)ethyl)pyrimidine-4,6-diamine]
8.00 to 9.00 | Cc1cnc2cc(CNc3cc(NCc4c(C)cc5c(N)nccc5c4C)ncn3)ccc2c1 [Example 311, N^4-((1-amino-5,7-dimethylisoquinolin-6-yl)methyl)-N^6-((3-methylquinolin-7-yl)methyl)pyrimidine-4,6-diamine]
> 9.00 | Cc1cc2c(N)nccc2c(C)c1CNc1cc(NCc2ccc3ncc(C(F)(F)F)cc3c2)ncn1 [Example 312, N^4-((1-amino-5,7-dimethylisoquinolin-6-yl)methyl)-N^6-((3-(trifluoromethyl)quinolin-6-yl)methyl)pyrimidine-4,6-diamine]
8.00 to 9.00 | Cc1cc2c(N)nccc2c(C)c1CNc1cc(NCc2cc3ccccc3cn2)ncn1 [Example 315, N^4-((1-amino-5,7-dimethylisoquinolin-6-yl)methyl)-N^6-(isoquinolin-3-ylmethyl)pyrimidine-4,6-diamine]
7.00 to 8.00 | Cc1cc2c(N)nccc2c(C)c1CNc1cc(N(C)Cc2cnc3ccccc3c2)ncn1 [Example 316, N^4-((1-amino-5,7-dimethylisoquinolin-6-yl)methyl)-N^6-methyl-N^6-(quinolin-3-ylmethyl)pyrimidine-4,6-diamine]
8.00 to 9.00 | Cc1cc2c(N)nccc2c(C)c1CNc1cc(NCc2cnc3ccccc3c2)ncn1 [Example 317, N^4-((1-amino-5,7-dimethylisoquinolin-6-yl)methyl)-N^6-(quinolin-3-ylmethyl)pyrimidine-4,6-diamine, formic acid salt]
6.00 to 7.00 | COc1ccc2cc(CN(C)c3cc(NCc4c(C)cc5c(N)nccc5c4C)ncn3)ccc2c1 [Example 318, N^4-((1-amino-5,7-dimethylisoquinolin-6-yl)methyl)-N^6_((6-methoxynaphthalen-2-yl)methyl)-N^6-methylpyrimidine-4,6-diamine]
6.00 to 7.00 | Cc1cc2c(N)nccc2c(C)c1CNc1cc(NCc2nc3ccccc3s2)ncn1 [Example 319, N^4-((1-amino-5,7-dimethylisoquinolin-6-yl)methyl)-N6-(benzo[d]thiazol-2-ylmethyl)pyrimidine-4,6-diamine]
8.00 to 9.00 | Cc1cc2c(N)nccc2c(C)c1CNc1cc(NCc2ccc3cnccc3c2)ncn1 [Example 320, N^4-((1-amino-5,7-dimethylisoquinolin-6-yl)methyl)-N^6-(isoquinolin-6-ylmethyl)pyrimidine-4,6-diamine]
8.00 to 9.00 | Cc1cc2c(N)nccc2c(C)c1CNc1cc(NCc2cn3ccccc3n2)ncn1 [Example 321, N^4-((1-amino-5,7-dimethylisoquinolin-6-yl)methyl)-N^6-(imidazo[1,2-a]pyridin-2-ylmethyl)pyrimidine-4,6-diamine]
8.00 to 9.00 | Cc1ccn2cc(CNc3cc(NCc4c(C)cc5c(N)nccc5c4C)ncn3)nc2c1 [Example 322, N^4-((1-amino-5,7-dimethylisoquinolin-6-yl)methyl)-N^6-((7-methylimidazo[1,2-a]pyridin-2-yl)methyl)pyrimidine-4,6-diamine]
8.00 to 9.00 | COc1ccnc2ccc(CNc3cc(NCc4c(C)cc5c(N)nccc5c4C)ncn3)cc12 [Example 323, N^4-((1-amino-5,7-dimethylisoquinolin-6-yl)methyl)-N^6-((4-methoxyquinolin-6-yl)methyl)pyrimidine-4,6-diamine]
8.00 to 9.00 | Cc1cc2c(N)nccc2c(C)c1CNc1cc(NCc2ccc3nccc(C)c3c2)ncn1 [Example 324, N^4-((1-amino-5,7-dimethylisoquinolin-6-yl)methyl)-N^6-((4-methylquinolin-6-yl)methyl)pyrimidine-4,6-diamine]
8.00 to 9.00 | Cc1cc2cc(CNc3cc(NCc4c(C)cc5c(N)nccc5c4C)ncn3)cnc2cc1C [Example 325, N^4-((1-amino-5,7-dimethylisoquinolin-6-yl)methyl)-N^6-((6,7-dimethylquinolin-3-yl)methyl)pyrimidine-4,6-diamine]
8.00 to 9.00 | Cc1cc2c(N)nccc2c(C)c1CNc1cc(NCc2ccc3c(c2)OCCN3C)ncn1 [Example 326, N^4-((1-amino-5,7-dimethylisoquinolin-6-yl)methyl)-N^6-((4-methyl-3,4-dihydro-2H-benzo[b][1,4]oxazin-7-yl)methyl)pyrimidine-4,6-diamine, formic acid salt]
8.00 to 9.00 | Cc1cc2c(N)nccc2c(C)c1CNc1cc(NCc2ccc3c(c2)N(C)C(=O)CO3)ncn1 [Example 327, 6-(((6-(((1-amino-5,7-dimethylisoquinolin-6-yl)methyl)amino)pyrimidin-4-yl)amino)methyl)-4-methyl-2H-benzo[b][1,4]oxazin-3(4H)-one, formic acid salt]

— patent US20260374754A1, “N-((ISOQUINOLIN-6-YL)METHYL)-1H-PYRAZOLE-4-CARBOXAMIDE DERIVATIVES AS PLASMA KALLIKREIN INHIBITORS FOR THE TREATMENT OF HEREDITARY ANGIODEMA” (Takeda Pharmaceutical Company Limited, priority 2022, published 2026)
